Measured values taken from patent US12077503B2, “Substituted cyclic amides and their use as herbicides” (FMC CORPORATION, priority 2015, dated 2024).
Where two headings read alike, the source gives them in different places.

What was measured:
Assay type in all cases: in vivo
[1] = system: sedge, umbrella (small-flower umbrella sedge, Cyperus difformis); assay: Test B flooded paddy test; settings: Cyperus difformis, 250 g ai/ha, Flood; 0 to 100 scale where 0 is no effect and 100 is complete control; read-out: Sedge, Umbrella plant response rating
Summary of the method: (§1)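 Percent control, visually estimated after 13–15 d in the greenhouse on a 0–100 basis, compares treated pots with untreated ones; compound was put into paddy water 3 cm above the soil when plants had two leaves.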

[2] = system: ducksalad (Heteranthera limosa); assay: Test B flooded paddy test; settings: Heteranthera limosa, 250 g ai/ha, Flood; 0 to 100 scale where 0 is no effect and 100 is complete control; read-out: Ducksalad plant response rating
Summary of the method: as §1

[3] = system: rice (Oryra sativa); assay: Test B flooded paddy test; settings: Oryza sativa, 250 g ai/ha, Flood; 0 to 100 scale where 0 is no effect and 100 is complete control; read-out: Rice plant response rating
Summary of the method: as §1

[4] = system: barnyardgrass (Echinochloa crus-galli); assay: Test B flooded paddy test; settings: Echinochloa crus-galli, 250 g ai/ha, Flood; 0 to 100 scale where 0 is no effect and 100 is complete control; read-out: Barnyardgrass plant response rating
Summary of the method: as §1

[5] = system: Galium (catchweed bedstraw, Galium aparine); assay: Test A postemergence; settings: Galium, post-emergence, 240 h, postemergence; for pest or weed control at 125 g/ha: 125 g ai/ha, visual injury vs untreated controls after approx. 10 d, 0 = no effect, 100 = complete control, read-out: Galium plant response rating (0 to 100 scale); for pest or weed control at 500 g/ha: 500 g ai/ha, 0 to 100 scale, 0 is no effect, 100 is complete control, read-out: Galium plant response rating
Summary of the method: (§2)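 Visual injury, scored on a 0–100 scale relative to untreated controls, was recorded about 10 d after application. Treatments were a preemergence soil spray over planted seeds or a postemergence spray on plants at the one- to two-leaf stage, 2 to 10 cm tall, all in loam soil–sand blend in the greenhouse.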

[6] = system: ryegrass, Italian (Italian ryegrass, Lolium multiflorum); assay: Test A postemergence; settings: Lolium multiflorum, post-emergence, 240 h, postemergence; for pest or weed control at 125 g/ha: 125 g ai/ha, visual injury vs untreated controls after approx. 10 d, 0 = no effect, 100 = complete control, read-out: Ryegrass, Italian plant response rating (0 to 100 scale); for pest or weed control at 500 g/ha: 500 g ai/ha, 0 to 100 scale, 0 is no effect, 100 is complete control, read-out: Ryegrass, Italian plant response rating
Summary of the method: as §2

[7] = system: ragweed (common ragweed, Ambrosia elatior); assay: Test A postemergence; settings: Ambrosia artemisiifolia, post-emergence, 240 h, postemergence; for pest or weed control at 125 g/ha: 125 g ai/ha, visual injury vs untreated controls after approx. 10 d, 0 = no effect, 100 = complete control, read-out: Ragweed plant response rating (0 to 100 scale); for pest or weed control at 500 g/ha: 500 g ai/ha, 0 to 100 scale, 0 is no effect, 100 is complete control, read-out: Ragweed plant response rating
Summary of the method: as §2

[8] = system: wheat (Triticum aestivum); assay: Test A postemergence; settings: Triticum aestivum, post-emergence, 240 h, postemergence; for plant injury at 125 g/ha: 125 g ai/ha, visual injury vs untreated controls after approx. 10 d, 0 = no effect, 100 = complete control, read-out: Wheat plant response rating (0 to 100 scale); for plant injury at 500 g/ha: 500 g ai/ha, 0 to 100 scale, 0 is no effect, 100 is complete control, read-out: Wheat plant response rating
Summary of the method: as §2

[9] = system: Kochia (Kochia scoparia); assay: Test A preemergence; settings: Bassia scoparia, pre-emergence, 240 h, preemergence, 0 to 100 scale where 0 is no effect and 100 is complete control, read-out: Kochia plant response rating; for pest or weed control at 125 g/ha: 125 g ai/ha; for pest or weed control at 500 g/ha: 500 g ai/ha
Summary of the method: as §2

[10] = system: giant foxtail (Setaria faberii); assay: Test A preemergence; settings: Setaria faberi, pre-emergence, 240 h, preemergence, 0 to 100 scale where 0 is no effect and 100 is complete control, read-out: Foxtail, Giant plant response rating; for pest or weed control at 125 g/ha: 125 g ai/ha; for pest or weed control at 500 g/ha: 500 g ai/ha
Summary of the method: as §2

[11] = system: pigweed (Amaranthus retroflexus); assay: Test A preemergence; settings: Amaranthus retroflexus, pre-emergence, 240 h, preemergence, 0 to 100 scale where 0 is no effect and 100 is complete control, read-out: Pigweed plant response rating; for pest or weed control at 125 g/ha: 125 g ai/ha; for pest or weed control at 500 g/ha: 500 g ai/ha
[12] = system: barnyardgrass (Echinochloa crus-galli); assay: Test A preemergence; settings: Echinochloa crus-galli, pre-emergence, 240 h, preemergence, 0 to 100 scale where 0 is no effect and 100 is complete control, read-out: Barnyardgrass plant response rating; for pest or weed control at 125 g/ha: 125 g ai/ha; for pest or weed control at 500 g/ha: 500 g ai/ha
Summary of the method: as §2

[13] = system: ryegrass, Italian (Italian ryegrass, Lolium multiflorum); assay: Test A preemergence; settings: Lolium multiflorum, pre-emergence, 240 h, preemergence, 0 to 100 scale where 0 is no effect and 100 is complete control, read-out: Ryegrass, Italian plant response rating; for pest or weed control at 125 g/ha: 125 g ai/ha; for pest or weed control at 500 g/ha: 500 g ai/ha
Summary of the method: as §2

[14] = system: ragweed (common ragweed, Ambrosia elatior); assay: Test A preemergence; settings: Ambrosia artemisiifolia, pre-emergence, 240 h, preemergence, 0 to 100 scale where 0 is no effect and 100 is complete control, read-out: Ragweed plant response rating; for pest or weed control at 125 g/ha: 125 g ai/ha; for pest or weed control at 500 g/ha: 500 g ai/ha
Summary of the method: as §2

[15] = visual injury rating, approximately 10 d

SMILES	pest or weed control at 250 g/ha [1]	pest or weed control at 250 g/ha [2]	pest or weed control at 250 g/ha [3]	pest or weed control at 250 g/ha [4]	pest or weed control at 125 g/ha [5]	pest or weed control at 500 g/ha [5]	pest or weed control at 125 g/ha [6]	pest or weed control at 500 g/ha [6]	pest or weed control at 125 g/ha [7]	pest or weed control at 500 g/ha [7]	plant injury at 125 g/ha [8]	plant injury at 500 g/ha [8]	pest or weed control at 125 g/ha ([9]; approx. 10 d)	pest or weed control at 500 g/ha [9]	pest or weed control at 125 g/ha ([10]; approx. 10 d)	pest or weed control at 500 g/ha [10]	pest or weed control at 500 g/ha [11]	pest or weed control at 500 g/ha [12]	pest or weed control at 500 g/ha [13]	pest or weed control at 500 g/ha [14]	also measured
Cc1nc([C@H]2CNC(=O)[C@@H]2C(=O)Nc2ccccc2F)cs1 [Compound 1179]	0%	40%	0%	0%	0%	0%	0%	0%	0%	0%	0%	0%	0%	0%	0%	0%	0%	0%	0%	0%	pest or weed control at 125 g/ha ([11]; approx. 10 d): 0%; pest or weed control at 125 g/ha ([12]; approx. 10 d): 0%; pest or weed control at 125 g/ha ([13]; approx. 10 d): 0%; pest or weed control at 125 g/ha ([14]; approx. 10 d): 0%
O=C1NC[C@H](c2nccs2)[C@H]1C(=O)Nc1ccccc1F [Compound 1181]	0%	35%	0%	0%	0%	0%	0%	0%	0%	0%	0%	0%	0%	0%	0%	0%	0%	0%	0%	0%	pest or weed control at 125 g/ha ([11]; approx. 10 d): 0%; pest or weed control at 125 g/ha ([12]; approx. 10 d): 0%; pest or weed control at 125 g/ha ([13]; approx. 10 d): 0%; pest or weed control at 125 g/ha ([14]; approx. 10 d): 0%
Cc1ccc([C@H]2CCN(C)C(=O)[C@@H]2C(=O)Nc2ccc(F)c(F)c2F)cc1 [Compound 1221]	0%	100%	0%	85%	40%	60%	20%	70%	0%	20%	20%	60%		50%		100%	50%	100%	80%	70%	pest or weed control at 125 g/ha [9, 15]: 40%; pest or weed control at 125 g/ha [10, 15]: 90%; pest or weed control at 125 g/ha [11, 15]: 0%; pest or weed control at 125 g/ha [12, 15]: 90%; pest or weed control at 125 g/ha [13, 15]: 20%; pest or weed control at 125 g/ha [14, 15]: 20%
CSc1ccccc1NC(=O)[C@H]1C(=O)N(C)CC[C@@H]1c1ccc(C)cc1 [Compound 1222]	70%	65%	15%	0%	0%	0%	0%	0%	0%	0%	0%	0%		40%		60%	0%	20%	0%	0%	pest or weed control at 125 g/ha [9, 15]: 0%; pest or weed control at 125 g/ha [10, 15]: 0%; pest or weed control at 125 g/ha [11, 15]: 0%; pest or weed control at 125 g/ha [12, 15]: 0%; pest or weed control at 125 g/ha [13, 15]: 0%; pest or weed control at 125 g/ha [14, 15]: 0%
